Measurements taken from US20160008277A1, “CO-PACKAGED DRUG PRODUCTS” (Lightlake Therapeutics Inc., priority 2014, published 2016).
Like-named read-outs stand apart in the source and are kept apart here.

Columns and labels:
[1] = Safety of intranasal naloxone in humans (Study 1): nasal irritation, vital signs, ECG, clinical laboratory; assay type: in vivo, human
Experimental: These vital signs and temperature were also measured at screening, clinic intake, one day after each dosing session and at follow-up. […] AEs were recorded from the start of study-drug administration until clinic discharge. […] Clinical laboratory measurements were done prior to the first drug administration and on the day of clinic release.
Statistical Analysis of Adverse Events: AEs were coded using the most recent version of the Medical Dictionary for Regulatory Activities (MedDRA). Preferred terms and are grouped by system, organ, class (SOC) designation. AEs are presented as a listing including the start date, stop date, severity, relationship, outcome, and duration.

[2] = Safety of intranasal naloxone in humans (Study 2): nasal irritation, adverse events, vital signs, ECG; assay type: in vivo, human
Source text: Specifically, the study had several objectives.
AEs were coded using the most recent version of the Medical Dictionary for Regulatory Activities (MedDRA) preferred terms and grouped by system, organ, class (SOC) designation. Separate summaries will be provided for the 5 study periods: after the administration of each dose of study drug up until the time of the next dose of study drug or clinic discharge. Listings of each individual AE including start date, stop date, severity, relationship, outcome, and duration were provided. Results are given below in Tables 12 and 13.

[3] = for Cmax/D, GLSM: dose adjustment to 0.4 mg
[4] = test system: patients with suspected opioid overdose; details: cited from earlier work
[5] = test system: suspected opiate overdose; details: cited from earlier work
[6] = test system: overdose events; details: cited from earlier work
[7] = test system: patients with suspected narcotic overdose; details: cited from earlier work
[8] = test system: suspected opiate overdose; details: cited from earlier work; remark: listed apart in the source
[9] = test system: opiate addicts; details: cited from earlier work
[10] = 400 μL, cited from earlier work
[11] = 2 mg nasal solution dose; cited from earlier work
[12] = clinical; details: human, plasma

C=CCN1CC[C@]23c4c5ccc(O)c4O[C@H]2C(=O)CC[C@@]3(O)[C@H]1C5 [naloxone, 17-allyl-4,5a-epoxy-3,14-dihydroxymorphinan-6-one]
Pharyngeal pain ([1]; 2 mg IN dose): One subject experienced mild transient (over 3 min) pharyngeal pain
Nasal irritation (erythema, edema, erosion, other sign in the nasal cavity) ([1]; IN naloxone at 2 and 4 mg to both nostrils): No erythema, edema, erosion, or other sign was observed
QTcF prolongation ([1]; Study 1): no evidence of QTcF prolongation
Vital signs, ECG, and clinical laboratory parameters ([1]; after naloxone administration, Study 1): did not reveal any clinically noteworthy changes
Dizziness (adverse events) ([2]; 0.4 mg Intramuscular Dose): 1
Headache (adverse events) ([2]; 0.4 mg Intramuscular Dose): 1
Nausea (adverse events) ([2]; 0.4 mg Intramuscular Dose): 1
Edema (events related to nasal irritation) ([2]; 2 mg (20 mg/mL, one spray)): 2
Erythema (events related to nasal irritation) ([2]; 2 mg (20 mg/mL, one spray)): 4
Nasal Pain (adverse events) ([2]; 2 mg (20 mg/mL, one spray)): 1
Other (events related to nasal irritation) ([2]; 2 mg (20 mg/mL, one spray)): 1
Total (events related to nasal irritation) ([2]; 2 mg (20 mg/mL, one spray)): 7
Edema (events related to nasal irritation) ([2]; 4 mg (20 mg/mL, two sprays)): 0
Erythema (events related to nasal irritation) ([2]; 4 mg (20 mg/mL, two sprays)): 1
Other (events related to nasal irritation) ([2]; 4 mg (20 mg/mL, two sprays)): 0
Total (events related to nasal irritation) ([2]; 4 mg (20 mg/mL, two sprays)): 1
Edema (events related to nasal irritation) ([2]; 4 mg (40 mg/mL, one spray)): 2
Erythema (events related to nasal irritation) ([2]; 4 mg (40 mg/mL, one spray)): 1
Other (events related to nasal irritation) ([2]; 4 mg (40 mg/mL, one spray)): 0
Total (events related to nasal irritation) ([2]; 4 mg (40 mg/mL, one spray)): 3
Edema (events related to nasal irritation) ([2]; 8 mg (40 mg/mL, two sprays)): 1
Erythema (events related to nasal irritation) ([2]; 8 mg (40 mg/mL, two sprays)): 0
Headache (adverse events) ([2]; 8 mg (40 mg/mL, two sprays)): 1
Other (events related to nasal irritation) ([2]; 8 mg (40 mg/mL, two sprays)): 0
Total (events related to nasal irritation) ([2]; 8 mg (40 mg/mL, two sprays)): 1
Relation of nasal irritation to the dose of naloxone given ([2]; 2 to 8 mg IN): did not appear to be positively related to the dose
QTcF prolongation ([2]; Study 2): no evidence of QTcF prolongation
Vital signs, ECG, and clinical laboratory parameters ([2]; after naloxone administration, Study 2): did not reveal any clinically noteworthy changes
Adverse events overall ([2]; nasal or intramuscular administration, Study 2): few adverse events were reported
λz, Mean ([3]; 0.4 mg IM): 0.593 h⁻¹
Cmax/D, GLSM ([3]; 0.4 mg IM): 0.755 ng/mL
λz, Mean ([3]; 2 mg IN): 0.588 h⁻¹
Frel, Mean ([3]; 2 mg IN versus IM): 0.571
Cmax/D, GLSM ([3]; 2 mg IN): 0.510 ng/mL
Frel, Mean ([3]; 4 mg IN versus IM): 0.475
Cmax/D, GLSM ([3]; 4 mg IN): 0.466 ng/mL
AUC % Extrapolate, mean (% CV) (0.4 mg IM): 2.32 (54.1) %
Lambda z (harmonic mean) (0.4 mg IM): 0.5534 h⁻¹
Lambda z (harmonic mean) (0.4 mg IM, Female): 0.6140 h⁻¹
Lambda z (harmonic mean) (0.4 mg IM, Male): 0.5152 h⁻¹
Lambda z (harmonic mean) (One 20 mg/mL IN, Female): 0.3978 h⁻¹
Lambda z (harmonic mean) (One 20 mg/mL IN, Male): 0.3492 h⁻¹
Lambda z (harmonic mean) (One 40 mg/mL IN, Female): 0.2946 h⁻¹
Lambda z (harmonic mean) (One 40 mg/mL IN, Male): 0.3386 h⁻¹
AUC % Extrapolate, mean (% CV) (One Spray - 2 mg 20 mg/mL IN): 1.09 (41.9) %
Lambda z (harmonic mean) (One Spray - 2 mg 20 mg/mL IN): 0.3685 h⁻¹
AUC % Extrapolate, mean (% CV) (One Spray - 4 mg 40 mg/mL IN): 1.06 (52.5) %
Lambda z (harmonic mean) (One Spray - 4 mg 40 mg/mL IN): 0.3182 h⁻¹
Lambda z (harmonic mean) (Two 20 mg/mL IN, Female): 0.2796 h⁻¹
Lambda z (harmonic mean) (Two 20 mg/mL IN, Male): 0.3122 h⁻¹
Lambda z (harmonic mean) (Two 40 mg/mL IN, Female): 0.2994 h⁻¹
Lambda z (harmonic mean) (Two 40 mg/mL IN, Male): 0.3407 h⁻¹
AUC % Extrapolate, mean (% CV) (Two Sprays - 4 mg 20 mg/mL IN): 1.01 (53.9) %
Lambda z (harmonic mean) (Two Sprays - 4 mg 20 mg/mL IN): 0.2973 h⁻¹
AUC % Extrapolate, mean (% CV) (Two Sprays - 8 mg 40 mg/mL IN): 1.04 (78.1) %
Lambda z (harmonic mean) (Two Sprays - 8 mg 40 mg/mL IN): 0.3217 h⁻¹
mean interval from EMS arrival to a respiratory rate of ≧10 breaths/min ([4]; naloxone 0.4 mg IV): 9.3 ± 4.2 min
mean interval from EMS arrival to a respiratory rate of ≧10 breaths/min ([4]; naloxone 0.8 mg SQ): 9.6 ± 4.58 min
patients responding to IN naloxone alone ([5]; 2 mg IN, 43 of 52 patients who responded to naloxone by IN or IV): 83%
median time from administration of the IN naloxone to patient awakening ([5]; 2 mg IN): 3.0 min
median time from arrival at patient side to awakening ([5]; 2 mg IN): 8.0 min
patients requiring further doses of IV naloxone ([5]; among responders to 2 mg IN alone): 16%
overdose events reversed ([6]; 399 overdose events where naloxone was used, participant-reported): 89%
participants reporting serious adverse effects ([6]; take-home naloxone): < 1%
Clinical response noted ([7]; IN group (2 mg), 33 of 50): 66%
mean time between naloxone administration and clinical response ([7]; IN group): 12.9 min
patients who received two doses of naloxone ([7]; IN group): 34%
Clinical response noted ([7]; IV group, 58 of 104): 56%
mean time between naloxone administration and clinical response ([7]; IV group): 8.1 min
patients who received two doses of naloxone ([7]; IV group): 18%
patients with more than 10 spontaneous respirations per minute within 8 minutes ([8]; 2 mg IM group): 82%
patients with more than 10 spontaneous respirations per minute within 8 minutes ([8]; 2 mg IN group): 63%
patients needing rescue naloxone ([8]; IM group): 13%
patients needing rescue naloxone ([8]; IN group): 26%
effectiveness of nasal administration compared with intravenous route [9]: as effective as the intravenous route
mean Tmax ([10]; 8 mg IN): 20.4 min
mean Tmax ([10]; 16 mg IN): 23.4 min
Cmax (predicted by Wermeling) [11]: 3 to 5 ng/mL
tmax (predicted by Wermeling) [11]: approximately 20 minutes
Cmax ([12]; female, im, 0.4 mg, 0.4 mg IM): 1.06 ng/mL
Tmax ([12]; female, im, 0.4 mg, Tmax (median), 0.4 mg IM): 19.8 min
Tmax ([12]; female, other: intranasal (IN), 4 mg, Tmax (median), One 40 mg/mL IN, Female): 30 min
Tmax ([12]; female, other: intranasal (IN), 8 mg, Tmax (median), Two 40 mg/mL IN, Female): 17.4 min
Cmax ([12]; female, other: intranasal, 2 mg, One 20 mg/mL IN, Female): 2.79 ng/mL
Tmax ([12]; female, other: intranasal, 2 mg, Tmax (median), One 20 mg/mL IN, Female): 19.8 min
Cmax ([12]; female, other: intranasal, 4 mg, One 40 mg/mL IN, Female): 5.12 ng/mL
Cmax ([12]; female, other: intranasal, 4 mg, Two 20 mg/mL IN, Female): 6.62 ng/mL
Tmax ([12]; female, other: intranasal, 4 mg, Tmax (median), Two 20 mg/mL IN, Female): 19.8 min
Cmax ([12]; female, other: intranasal, 8 mg, Two 40 mg/mL IN, Female): 9.52 ng/mL
Cmax ([12]; im, 0.4 mg, mean (% CV), 0.4 mg IM): 0.906 ng/mL
Tmax ([12]; im, 0.4 mg, Tmax (median, range), 0.4 mg IM): 25.2 min
Cmax ([12]; other: intranasal, 2 mg, mean (% CV), One Spray - 2 mg 20 mg/mL IN): 3.11 ng/mL
Tmax ([12]; other: intranasal, 2 mg, Tmax (median, range), One Spray - 2 mg 20 mg/mL IN): 19.8 min
Cmax ([12]; other: intranasal, 4 mg, mean (% CV), One Spray - 4 mg 40 mg/mL IN): 5.34 ng/mL
Cmax ([12]; other: intranasal, 4 mg, mean (% CV), Two Sprays - 4 mg 20 mg/mL IN): 6.63 ng/mL
Tmax ([12]; other: intranasal, 4 mg, Tmax (median, range), One Spray - 4 mg 40 mg/mL IN): 30 min
Tmax ([12]; other: intranasal, 4 mg, Tmax (median, range), Two Sprays - 4 mg 20 mg/mL IN): 19.8 min
Cmax ([12]; other: intranasal, 8 mg, mean (% CV), Two Sprays - 8 mg 40 mg/mL IN): 10.3 ng/mL
Tmax ([12]; other: intranasal, 8 mg, Tmax (median, range), Two Sprays - 8 mg 40 mg/mL IN): 19.8 min
Cmax ([12]; male, im, 0.4 mg, 0.4 mg IM): 0.792 ng/mL
Tmax ([12]; male, im, 0.4 mg, Tmax (median), 0.4 mg IM): 30 min
Tmax ([12]; male, other: intranasal (IN), 4 mg, Tmax (median), One 40 mg/mL IN, Male): 30 min
Tmax ([12]; male, other: intranasal (IN), 8 mg, Tmax (median), Two 40 mg/mL IN, Male): 25.2 min
Cmax ([12]; male, other: intranasal, 2 mg, One 20 mg/mL IN, Male): 3.35 ng/mL
Tmax ([12]; male, other: intranasal, 2 mg, Tmax (median), One 20 mg/mL IN, Male): 19.8 min
Cmax ([12]; male, other: intranasal, 4 mg, One 40 mg/mL IN, Male): 5.51 ng/mL
Cmax ([12]; male, other: intranasal, 4 mg, Two 20 mg/mL IN, Male): 6.64 ng/mL
Tmax ([12]; male, other: intranasal, 4 mg, Tmax (median), Two 20 mg/mL IN, Male): 15 min
Cmax ([12]; male, other: intranasal, 8 mg, Two 40 mg/mL IN, Male): 10.9 ng/mL
